Reference: patent US20240252488A1 (KOREA RESEARCH INSTITUTE OF CHEMICAL TECHNOLOGY, priority 2020, published 2024)

Tests used:
MLKL [1] = target: T1, MLKL (Homo sapiens, UniProt Q8NB16); test: Measurement of binding affinity with MLKL receptor (competitive binding assay, Kd); design: made in house; host or cells: HEK 293 cell line (T7 phage in E. coli BL21-derived host is also described)
T1 sequence (Q8NB16 1-471): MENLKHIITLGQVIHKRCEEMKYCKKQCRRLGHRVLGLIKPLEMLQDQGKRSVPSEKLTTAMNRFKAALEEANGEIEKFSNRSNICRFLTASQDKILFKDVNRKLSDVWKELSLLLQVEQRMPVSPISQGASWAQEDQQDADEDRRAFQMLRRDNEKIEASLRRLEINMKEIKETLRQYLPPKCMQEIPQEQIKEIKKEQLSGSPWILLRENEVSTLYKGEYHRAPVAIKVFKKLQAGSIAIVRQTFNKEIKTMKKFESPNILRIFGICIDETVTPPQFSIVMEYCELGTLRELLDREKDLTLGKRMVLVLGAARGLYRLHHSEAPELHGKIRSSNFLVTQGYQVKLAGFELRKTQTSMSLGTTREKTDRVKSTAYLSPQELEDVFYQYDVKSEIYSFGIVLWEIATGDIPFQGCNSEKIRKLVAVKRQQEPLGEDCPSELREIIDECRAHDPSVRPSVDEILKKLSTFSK
In short: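 Competition binding of kinase tagged with DNA for qPCR detection, expressed in HEK 293 cells, against immobilized ligand on beads. Final DMSO 0.9%. Kd derived from kinase amount in eluates measured by qPCR.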

MLKL [2] = target: T1, MLKL; test: MLKL degradation assay in HepG2 cell line (western blot); type: cell-based; design: endogenous in cells; host or cells: HepG2 or HaCaT; settings: cell line not given; for Degradation assay (Degradation %) 1 μM: compound 1 μM; for Degradation assay (Degradation %) 10 μM: compound 10 μM
In short: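 Western blot chemiluminescence of MLKL in equal-protein lysates (10-15 μg, BCA-adjusted). Before lysis, HepG2 cells were exposed to 1 or 10 μM (final) test compound for 20-24 h at 37 °C.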

FADD−/− Jurkat cells = test: Necroptosis inhibition assay, TNF-α-induced necroptosis (CellTiter-Glo 2.0); type: cell-based, human; settings: TNF-α 15 ng/mL; for Necroptosis inhibition assay (Rescue %) 1 μM: compound 1 μM; for Necroptosis inhibition assay (Rescue %) 10 μM: compound 10 μM
In short: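 Necroptosis induced by 15 ng/mL TNF-α (final) for 20–24 h at 37 °C, after a 30 min room-temperature pretreatment of FADD-deficient Jurkat cells with 0.1, 1 or 10 μM compound. ATP-based luminescence gave viability, from which inhibition rate and cytotoxicity were derived.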

Structure (SMILES) | Kd (MLKL [1]) [nM] | Degradation assay (Degradation %) 1 μM (MLKL [2]) [%] | Degradation assay (Degradation %) 10 μM (MLKL [2]) [%] | Necroptosis inhibition assay (Rescue %) 1 μM (FADD−/− Jurkat cells; FADD−/− Jurkat cells) [%] | Necroptosis inhibition assay (Rescue %) 10 μM (FADD−/− Jurkat cells; FADD−/− Jurkat cells) [%] | Necroptosis inhibition assay (Rescue %) 1 μM (FADD−/− Jurkat cells) [%] | Necroptosis inhibition assay (Rescue %) 10 μM (FADD−/− Jurkat cells) [%]
Nc1ncc(-c2cnn(C3CCN(CC4CCN(c5cc6c(cc5F)C(=O)N(C5CCC(=O)NC5=O)C6=O)CC4)CC3)c2)nc1C(=O)O[C@@H](C(=O)Nc1ccc(F)cc1)c1ccccc1 (stereo partly drawn) [TDH-519, (R)-2-((4-fluorophenyl)amino)-2-oxo-1-phenylethyl 3-amino-6-(1-(1-((1-(2-(2,6-dioxopiperidin-3-yl)-6-fluoro-1,3-dioxoisoindolin-5-yl)piperidin-4-yl)methyl)piperidin-4-yl)-1H-pyrazol-4-yl)pyrazine-2-carboxylate] | 7.1 | 89.40 | 86.43 | 4.80 | 17.07 | – | –
COc1ccc(C(=O)N2CCC(C(=O)N3CCC(CN4CCC(n5cc(-c6cnc(N)c(C(=O)O[C@@H](C(=O)Nc7ccc(F)cc7)c7ccccc7)n6)cn5)CC4)CC3)CC2)cc1N1CCC(=O)NC1=O [TDH-515, (R)-2-((4-fluorophenyl)amino)-2-oxo-1-phenylethyl 3-amino-6-(1-(1-((1-(1-(3-(2,4-dioxotetrahydropyrimidin-1(2H)-yl)-4-methoxybenzoyl)piperidine-4-carbonyl)piperidin-4-yl)methyl)piperidin-4-yl)-1H-pyrazol-4-yl)pyrazine-2-carboxylate] | 1.4 | 95.21 | 89.06 | 68.04 | 15.68 | – | –
Nc1ncc(-c2cnn(C3CCN(C(=O)CC4CCN(C(=O)CNc5cccc6c5C(=O)N(C5CCC(=O)NC5=O)C6=O)CC4)CC3)c2)nc1C(=O)O[C@@H](C(=O)Nc1ccc(F)cc1)c1ccccc1 (stereo partly drawn) [TDH-339, (R)-2-((4-fluorophenyl)amino)-2-oxo-1-phenylethyl 3-amino-6-(1-(1-(2-(1-((2-(2,6-dioxopiperidin-3-yl)-1,3-dioxoisoindolin-4-yl)glycyl)piperidin-4-yl)acetyl)piperidin-4-yl)-1H-pyrazol-4-yl)pyrazine-2-carboxylate] | 13 | 71.36 | 51.92 | – | – | 12.23 | 12.31
Nc1ncc(-c2cnn(C3CCN(CCOC4CCN(C(=O)C5CCN(C6=CC(=O)N(C7CCC(=O)NC7=O)C6=O)CC5)CC4)CC3)c2)nc1C(=O)O[C@@H](C(=O)Nc1ccc(F)cc1)c1ccccc1 (stereo partly drawn) [TDH-529, (R)-2-((4-fluorophenyl)amino)-2-oxo-1-phenylethyl 3-amino-6-(1-(1-(2-((1-(1-(1-(2,6-dioxopiperidin-3-yl)-2,5-dioxo-2,5-dihydro-1H-pyrrol-3-yl)piperidine-4-carbonyl)piperidin-4-yl)oxy)ethyl)piperidin-4-yl)-1H-pyrazol-4-yl)pyrazine-2-carboxylate] | 0.25 | 24.89 | 66.48 | 36.72 | 15.86 | – | –
COc1ccc(C(=O)N2CCC(OCCN3CCC(n4cc(-c5cnc(N)c(C(=O)O[C@@H](C(=O)Nc6ccc(F)cc6)c6ccccc6)n5)cn4)CC3)CC2)cc1N1CCC(=O)NC1=O [TDH-448, (R)-2-((4-fluorophenyl)amino)-2-oxo-1-phenylethyl 3-amino-6-(1-(1-(2-((1-(3-(2,4-dioxotetrahydropyrimidin-1(2H)-yl)-4-methoxybenzoyl)piperidin-4-yl)oxy)ethyl)piperidin-4-yl)-1H-pyrazol-4-yl)pyrazine-2-carboxylate] | 0.38 | 48.26 | 7.49 | 27.91 | 20.07 | – | –
Nc1ncc(-c2cnn(C3CCN(CCCC4CCN(c5ccc6c(c5)C(=O)N(C5CCC(=O)NC5=O)C6=O)CC4)CC3)c2)nc1C(=O)O[C@@H](C(=O)Nc1ccc(F)cc1)c1ccccc1 (stereo partly drawn) [TDH-481, (R)-2-((4-fluorophenyl)amino)-2-oxo-1-phenylethyl 3-amino-6-(1-(1-(3-(1-(2-(2,6-dioxopiperidin-3-yl)-1,3-dioxoisoindolin-5-yl)piperidin-4-yl)propyl)piperidin-4-yl)-1H-pyrazol-4-yl)pyrazine-2-carboxylate] | 8.8 | 74.5 | 63.36 | 17.64 | 9.86 | – | –
Nc1ncc(-c2cnn(C3CCN(CCOC4CCN(C(=O)CNc5ccc6c(c5)C(=O)N(C5CCC(=O)NC5=O)C6=O)CC4)CC3)c2)nc1C(=O)OC(C(=O)Nc1ccc(F)cc1)c1ccccc1 (stereo not shown) [TDH-250, 2-((4-fluorophenyl)amino)-2-oxo-1-phenylethyl 3-amino-6-(1-(1-(2-((1-((2-(2,6-dioxopiperidin-3-yl)-1,3-dioxoisoindolin-5-yl)glycyl)piperidin-4-yl)oxy)ethyl)piperidin-4-yl)-1H-pyrazol-4-yl)pyrazine-2-carboxylate] | 4.9 | 78.33 | 71.54 | – | – | 69.46 | 46.6
Nc1ncc(-c2cnn(C3CCN(CC4CCN(CC5CCN(C(=O)C6CN(C7=CC(=O)N(C8CCC(=O)NC8=O)C7=O)C6)CC5)CC4)CC3)c2)nc1C(=O)O[C@@H](C(=O)Nc1ccc(F)cc1)c1ccccc1 (stereo partly drawn) [TDH-533, (R)-2-((4-fluorophenyl)amino)-2-oxo-1-phenylethyl 3-amino-6-(1-(1-((1-((1-(1-(1-(2,6-dioxopiperidin-3-yl)-2,5-dioxo-2,5-dihydro-1H-pyrrol-3-yl)azetidine-3-carbonyl)piperidin-4-yl)methyl)piperidin-4-yl)methyl)piperidin-4-yl)-1H-pyrazol-4-yl)pyrazine-2-carboxylate] | 0.47 | 33.35 | 29.05 | 11.86 | 22.99 | – | –
Nc1ncc(-c2cnn(C3CCN(C4CC5(CCN(CC6CCN(C(=O)C7CCN(C8=CC(=O)N(C9CCC(=O)NC9=O)C8=O)CC7)CC6)CC5)C4)CC3)c2)nc1C(=O)O[C@@H](C(=O)Nc1ccc(F)cc1)c1ccccc1 (stereo partly drawn) [TDH-528, (R)-2-((4-fluorophenyl)amino)-2-oxo-1-phenylethyl 3-amino-6-(1-(1-(7-((1-(1-(1-(2,6-dioxopiperidin-3-yl)-2,5-dioxo-2,5-dihydro-1H-pyrrol-3-yl)piperidine-4-carbonyl)piperidin-4-yl)methyl)-7-azaspiro[3.5]nonan-2-yl)piperidin-4-yl)-1H-pyrazol-4-yl)pyrazine-2-carboxylate] | 0.18 | 63.93 | 56.11 | 40.69 | 0.38 | – | –
Nc1ncc(-c2cnn(C3CCN(CCOCCNC(=O)C4CCN(c5cccc6c5C(=O)N(C5CCC(=O)NC5=O)C6=O)CC4)CC3)c2)nc1C(=O)O[C@@H](C(=O)Nc1ccc(F)cc1)c1ccccc1 (stereo partly drawn) [TDH-128, (R)-2-((4-fluorophenyl)amino)-2-oxo-1-phenylethyl 3-amino-6-(1-(1-(2-(2-(1-(2-(2,6-dioxopiperidin-3-yl)-1,3-dioxoisoindolin-4-yl)piperidine-4-carboxamido)ethoxy)ethyl)piperidin-4-yl)-1H-pyrazol-4-yl)pyrazine-2-carboxylate] | 14 | 11 | 68.52 | – | – | 26.22 | 56.56
Nc1ncc(-c2cnn(C3CCN(CCCN4CCN(C(=O)c5ccc6c(N7CCC(=O)NC7=O)coc6c5)CC4)CC3)c2)nc1C(=O)O[C@@H](C(=O)Nc1ccc(F)cc1)c1ccccc1 [TDH-551, (R)-2-((4-fluorophenyl)amino)-2-oxo-1-phenylethyl 3-amino-6-(1-(1-(3-(4-(3-(2,4-dioxotetrahydropyrimidin-1(2H)-yl)benzofuran-6-carbonyl)piperazin-1-yl)propyl)piperidin-4-yl)-1H-pyrazol-4-yl)pyrazine-2-carboxylate] | 0.3 | 88.03 | 83.80 | 40.61 | 10.85 | – | –
